Consider seven compounds from patent US6512166B1, “Combinations of fungal cell wall degrading enzyme and fungal cell membrane affecting compound” (priority 1991, dated 2003).

Data set [1] has as its system Fusarium oxysporum strain FOP1. The experiment in a line: Inhibition of spore germination, ELISA plate assay (Examples V-XIV, XVII). Format: cell-based. The settings on record: for inhibition of spore germination: FIG. 8. The protocol: (§1) The concentration where fungal cell wall degrading enzyme individually provides a specified percentage fungal inhibition or where antifungal fungal cell membrane affecting compound individually provides a specific percentage fungal inhibition can be determined as follows: Assays are performed under sterile conditions. Equal volumes of spore suspensions, 3× potato dextrose broth, and the test solution or suspension in 5 mM Tris-HCl (pH 6.0) or 5 mM potassium phosphate buffer (pH 6.7) are mixed. The control is the same as the test solution except for the control the antifungal agent is omitted. The assay mixtures (total volume 45 or 30 μl) are incubated on flat-bottomed ELISA plates, each containing 96 wells, with 2,000 to 3,000 spores per well, at 25° C. After 22 to 30 hours, the plates are placed under an inverted microscope. The percentage of conidia germinating is determined as the percentage of the first 100 spores randomly found in a well. In addition, the lengths of 20 germ tubes are measured and averaged. All experiments are performed twice, with three replicates for each treatment. The inhibition values obtained in the two experiments are combined and averaged, and standard deviations are calculated from the 6 data points. The values obtained for the control are taken as 0% inhibition and all other values are divided by the values obtained for the control and multiplied by 100% to obtain percent inhibition. Determination of concentration corresponding to a particular percent inhibition is carried out by subjecting dose-response curves to regression analysis by using a binomial regression of the third order, with R^2 ranging between 0.95 and 0.99.
(§2) Assays were carried out by the procedure described in the summary of the invention section. Dose response curves were obtained by probit analysis of data collected from two separate experiments with each experiment involving three treatment replicates.
(§3) Dose response curves were determined for each antifungal fungal cell membrane affecting compound and for each fungal cell wall degrading enzyme singly. Then each fungal cell wall degrading enzyme at a concentration giving 10% inhibition when used alone was combined with increasing amounts of antifungal fungal cell membrane affecting compound. Then the concentration of antifungal fungal cell membrane affecting compound causing the ED50 for each combination was calculated by probit analysis of data collected from two experiments with three treatment replicates for each experiment. Assays for inhibition of spore germination were carried out as described in the summary of invention section above.
The relative level of synergism (RS below) for each combination was calculated by applying Limpel's formula: Ee=X+Y−(XY/100) as described in Richer, D. L, Pestic. Sci. 19, 309-315, 1987. In Limpel's formula, X and Y are the percentages of inhibition relative to each compound used alone and Ee is the expected effect for an additional (non-synergistic) effect. If the combination of the two agents produces an observed effect (Eo) greater than Ee, synergism exists, and as the difference between Eo and Ee increases, the level of synergism is greater. In this experiment, the X value (percentage inhibition by fungal cell wall degrading enzyme when used alone was chosen to be 10 (10% inhibition of spore germination when used alone) and the observed effect, Eo, was 50 (i.e., 50% inhibition of spore germination). The Y values were obtained from the determined concentrations of antifungal cell membrane affecting compound causing the ED50 for a combination and the dose response curves for the antifungal cell membrane affecting compound used alone—i.e., the Y value was the percent inhibition for the antifungal fungal cell membrane affecting compound when used alone for the concentration of antifungal fungal cell membrane affecting compound that was determined to cause the ED50 for the combination. Ee values were then calculated from Limpel's formula. […]

Data set [2] is described as follows: Solubility, guidance for forming solutions. The source says:
Compositions for use in the systems herein are readily formulated by admixing the fungal cell wall degrading enzymes and the antifungal fungal cell membrane affecting compounds with non-toxic carriers appropriate for the particular use for a composition, e.g., agriculturally acceptable carriers for agricultural uses and pharmaceutically acceptable carriers for medicinal uses. They may be formulated as liquids (solutions or suspensions) or as solids. Since the fungal cell wall degrading enzymes need free water for activity, water must be present at the time of function. […] Water is a preferred vehicle where components are soluble in it. […] Organic solvents can also be used and may be required in some cases if a solution is desired. Guidance for forming solutions follows. […] Suspension can also be employed.

The subject of data set [3] is B. cinerea strain 12. The data set can be described thus: Inhibition of spore germination, ELISA plate assay (Examples III-XVI, XVIII). It counts as cell-based, Botrytis cinerea. The conditions noted are these: for ED50: alone or with enzyme at its ED10 concentration; for inhibition of spore germination: FIG. 7. The protocol: as §1, §2
Each of 8 antifungal fungal cell membrane affecting compounds were used in combination with each of 8 or 6 fungal cell wall degrading enzymes to provide 50% inhibition (ED50) of B. cinerea strain 12 spore germination. Each fungal cell wall degrading enzyme was used at a concentration giving 10% inhibition of spore germination when used alone in combination with an amount of antifungal fungal cell membrane affecting compound so the combination gave 50% inhibition of spore germination.
as §3
The relative level of synergism (RS below) for each combination was calculated by applying Limpel's formula: Ee=X+Y−(XY/100) as described in Richer, D. L, Pestic. Sci. 19, 309-315, 1987. In Limpel's formula, X and Y are the percentages of inhibition relative to each compound used alone and Ee is the expected effect for an additional (non-synergistic) effect. If the combination of the two agents produces an observed effect (Eo) greater than Ee, synergism exists, and as the difference between Eo and Ee increases, the level of synergism is greater. […]

Data set [4] deals with B. cinerea. The conditions noted are these: against B. cinerea, Watanabe et al; cited from earlier work.

Converted amounts (≈) assume the structure as drawn. A value given as a limit tells only on which side of the number the result lay.

As for trichorzianine A1 [Trich. A1], the ED50 in data set [1] (Table 26, concentration of trichorzianine A1 for 50% inhibition, alone or with enzyme at its ED10 concentration) is 87 (83-91) ng ml^−1; in data set [3] (Table 18, concentration of trichorzianine A1 for 50% inhibition), 90.5 (85-95) μg ml^−1. Also, the “solubility (solvent in which the substance dissolves)” value (from here on “solubility”) in data set [2] is on record as “readily dissolved in water”.
For the compound `CN1C(=O)[C@]23CC4=CC=C[C@H](O)[C@H]4N2C(=O)[C@@]1(CO)SS3` [Gliotoxin, gliotoxin], the “solubility” value in data set [2] was “dissolves in methanol and ethanol”.
With `CC(C)[C@@H]1NC(=O)[C@H](C)OC(=O)[C@@H](C(C)C)NC(=O)[C@@H](C(C)C)OC(=O)[C@H](C(C)C)NC(=O)[C@H](C)OC(=O)[C@@H](C(C)C)NC(=O)[C@@H](C(C)C)OC(=O)[C@H](C(C)C)NC(=O)[C@H](C)OC(=O)[C@@H](C(C)C)NC(=O)[C@@H](C(C)C)OC1=O` [Valinomycin, valinomycin], the ED in data set [1] (Table 24, concentration of valinomycin for 50% inhibition, alone or with enzyme at its ED10 concentration) is reported as 8.5 (8.0-9.0) ng ml^−1. The “solubility” value in data set [2] is reported as “dissolve in acetone”. Moreover, the ED50 in data set [3] (Table 16, concentration of valinomycin for 50% inhibition) was 7.3 (7.0-7.6) μg ml^−1.
On to gramicidin, for which the ED50 in data set [1] (Table 23, concentration of gramicidin for 50% inhibition, alone or with enzyme at its ED10 concentration) is above 300 ng/mL; in data set [3] (Table 15, concentration of gramicidin for 50% inhibition), above 300 µg/mL. Further, the “inhibition of spore germination” value in data set [1] (gramicidin alone) is recorded as 20-25%; in data set [1] (gramicidin with glucosidase from T. harzianum strain P1 (10, 25 μg/ml)) it was “about 100%”; in data set [3] (gramicidin alone) it was 20-25%; in data set [3] (gramicidin with endochitinase from G. virens strain 41 (2.5, 5 μg/ml)), “about 100%”. Further, the “solubility” value in data set [2] is “dissolves in ethanol”.
For trichorzianine B1 [Trich. B1], the ED50 is 95.5 (92-99) ng ml^−1 in data set [1] (Table 27, concentration of trichorzianine B1 for 50% inhibition, alone or with enzyme at its ED10 concentration) and 95.2 (92-99) μg ml^−1 in data set [3] (Table 19, concentration of trichorzianine B1 for 50% inhibition). For the same compound, the “solubility” value in data set [2] is “readily dissolved in water”.
For `CC(C)OP(=O)(OC(C)C)SCc1ccccc1` [kitazin P], the Minimum inhibitory concentration in data set [4] was 500 µg/mL (≈ 1730 µM).
As for `NC(=O)OC[C@H](O)[C@@H](O)[C@H](N)C(=O)N[C@H](C(=O)O)[C@H]1O[C@@H](n2cc(CO)c(=O)[nH]c2=O)[C@H](O)[C@@H]1O` [polyoxin B], the Minimum inhibitory concentration in data set [4] was 12.5 µg/mL (≈ 24.6 µM).
